Results from US20040077720A1, “Inhibition of antibody production employing perfluorooctanoic acid or derivatives thereof” (priority 2002, published 2004).
Entries after “also recorded” stand apart in the source; their conditions may differ.

Key:
MRL/MpJ-Tnfrsf6^1pr-Mice [1] = assay: Withdrawal study in treated MRL mice; assay type: in vivo
Protocol: (§1) The presence of circulating immunocomplexes is analyzed indirectly by continuous monitoring of the levels of protein, hemoglobin and erythrocytes in the urine of these animals, the quantities of which are directly related to the severity of the immunocomplex-mediated glomerulonephritis which develops. […] The effectiveness of a low dose of the substance and 100% reproducibility argue for a direct inhibition of the mechanism(s) underlying development of the disease.
(§2) By inhibiting antibody production, this substance also prevents the formation of immunocomplexes. These treated animals appear completely normal, without joint deterioration, lymphocyte proliferation, dermal vasculitis or immunocomplex-mediated glomerulonephritis.
In a separate study compound B was withdrawn from mice treated during 23-26 weeks. The mice were followed for up to 39-42 weeks.

MRL/MpJ-Tnfrsf6^1pr-Mice [2] = assay: Treatment of MRL/MpJ-Tnfrsf6 lpr mice (spontaneous SLE-like autoimmune syndrome); clinical observation, urine, autopsy; assay type: in vivo
From the text: As the experimental animal model for studies of inhibition of disease development and the underlying mechanism(s), Applicants have employed MRL-Tnfrs6/1 pr mice, which spontaneously develop high levels of a wide range of antibodies and an SLE-like syndrome, including severe lymphoadrenopathy. The MRL-mouse strain is known to develop a severe autoimmune disease syndrome. In fact, it is known to develop the most severe disease state. Highs levels of circulating autoantibodies, immunocomplexes mediated glomerulonephritis, arthritis and vasculitis are observed. The mice also develop a heavy proliferation of lymph nodes.
as §1
The symptoms which these mice develop include deterioration of joints and consequent motor difficulties, kidney damage with resulting uremia (retention of fluid) and extreme lymphoadenopathy. This lymphoadenopathy arises from defects in the FAS antigen gene resulting from the lymphoproliferation (1 pr) mutation in MRL-mice. In the final stages of their disease these animals also develop dermal vasculitis. 100% of these mice develop these symptoms.
The degree of renal damage can be monitored on the basis of the level of protein, erythrocytes, hemoglobin and hyalin cylinders in the urine. Lymphocyte proliferation can be assessed from the growth of lymph nodes in the shoulders and groin, as well as along the aorta. Blood and tissue samples are collected for analysis and histopathological examination.
Animal Model: MRL/MpJ-Tnfrsf6^1pr-Mice
This strain develops spontaneous systemic lupus erythematosus-like autoimmune syndrome at or about 8 weeks of age. The syndrome is characterized by massive lymphadenopathy, immune complex glomerulonephritis, arthritis, high level of circulating antibodies, and vasculitis.
Compounds A and B were tested. Compound A was a reference compound and compound B was PFOA. Treatment was initiated at the age of 5 and 8 weeks, respectively. All animals received the respective compounds on a daily basis. A control group of mice without treatment was run in parallel. The following parameters were screened.
2. Investigation of urine sediment.
3. Monitoring of proteinuria.
Parameters followed during the study: 1) Clinical observation; 2) Urine: light microscopy, proteinuria. The following organs were sampled: thymus, lymph nodes, kidney, liver, and spleen. The organs were investigated by histopathology and immunohistopathology.

thymus and spleen = assay: Laboratory studies: thymus and spleen; set-up: species or system rodent; details: in vivo
From the text: PFOA belongs to a group of chemicals that induce peroxisome proliferation in the liver in rodent. […] These initial observations led to the inventors' discovery that PFOA could interfere with the immune system, and that PFOA could express immunosuppressive properties.

horse erythrocytes = assay: Immunization with horse erythrocytes after treatment; antibody response; assay type: in vivo; details: mice treated, then immunized with horse erythrocytes
From the text: as §2

[3] = mouse, in vivo, listed as perfluorooctanoic acid
[4] = daily treatment started at age 5 or 8 weeks

`O=C(O)C(F)(F)C(F)(F)C(F)(F)C(F)(F)C(F)(F)C(F)(F)C(F)(F)F` [Compound B, Perfluorooctanoic acid] was tested, and the “disease symptoms when treatment is terminated / substance withdrawn” value (MRL/MpJ-Tnfrsf6^1pr-Mice [1]; [3]) was “the animals develop disease symptoms; also recorded: the mice begin to develop typical disease symptoms”, the “time after withdrawal at which proteinuria was observed” value (MRL/MpJ-Tnfrsf6^1pr-Mice [1]; treated during 23-26 weeks) was 5 weeks and the weight after withdrawal (MRL/MpJ-Tnfrsf6^1pr-Mice [1]; treated during 23-26 weeks, followed up to 39-42 weeks) was “an increase in weight was observed”. For the same molecule, the “clinical symptoms after withdrawal” value (MRL/MpJ-Tnfrsf6^1pr-Mice [1]; treated during 23-26 weeks, followed up to the 42 week point) was “no sign of symptoms were observed”, the anasarca (MRL/MpJ-Tnfrsf6^1pr-Mice [2]; at autopsy) was “no anasarca was detected” and the survival rate (MRL/MpJ-Tnfrsf6^1pr-Mice [2]; compared to control group and compound A treated mice) was “clear-cut increase of survival rate”. The body weight (MRL/MpJ-Tnfrsf6^1pr-Mice [2]; [4]) was “No body weight gain”, the enlarged lymph nodes (MRL/MpJ-Tnfrsf6^1pr-Mice [2]; [4]) was “No” and the “clinical observation: activity / movement” value (MRL/MpJ-Tnfrsf6^1pr-Mice [2]; mouse, in vivo) was “very active”. For the same molecule, the fur (MRL/MpJ-Tnfrsf6^1pr-Mice [2]; mouse, in vivo) was “normal fur”, the lymphadenopathy (MRL/MpJ-Tnfrsf6^1pr-Mice [2]; mouse, in vivo) was “No lymphadenothapy was observed” and the ulcers (MRL/MpJ-Tnfrsf6^1pr-Mice [2]; mouse, in vivo) was “No ulcers were observed”. For the same molecule, the “signs / symptoms of disease during treatment” value (MRL/MpJ-Tnfrsf6^1pr-Mice [2]; mouse, in vivo, listed as compound B) was “did not develop any signs of disease”, the “signs / symptoms of disease during treatment” value (MRL/MpJ-Tnfrsf6^1pr-Mice [2]; [3]) was “none of these disease symptoms are observed” and the proteinuria (MRL/MpJ-Tnfrsf6^1pr-Mice [2]; urine, daily treatment started at age 5 or 8 weeks) was “No”. The thymus and spleen (thymus and spleen) was “a reduction of thymus and spleen was observed” and the “antibody response to foreign antigens” value (horse erythrocytes) was “no antibody response”.
